Read-outs that look alike come from different tables or passages of the source.
How the values were obtained:
A2058 cells [1] = assay: Cell adhesion to tissue culture plastic; type: cell-based, human; details: 0.03-10 μg/mL, 2 to 48 hr preincubation
Procedure: (§1) An adhesion assay was developed using tissue culture plastic petri dishes as the substrate. Aliquots of cells treated similarly to those in the cell motility assay were plated in triplicate onto the dishes and incubated for 90 rain at 37° C. Cells which were either poorly adherent or nonadherent were gently washed off with PBS. The remaining cells were stained with Diff Quik™ (from Baxter Scientific Products, McGaw Park. Ill., USA). Adherence was quantitated using laser densitometry and values were calculated as a percentage of the control adherence.
Cells were preincubated with compound 1 (0.03-10 μg/mL) for periods of 2 to 48 hr prior to the adhesion assay. In addition, compound 1 remained present during the assay. […] Maximal inhibition of adhesion was observed following overnight exposure of the cells to compound 1.

A2058 and 5R cells = assay: Reversibility of inhibition of tumor cell adhesion; type: cell-based; details: for activity at 1 µg/mL / activity at 5 µg/mL: Homo sapiens, read-out: Adhesion (% of control)
Procedure: as §1
As with cell motility, the effect of compound 1 on cell adhesion is reversible. A2058 and 5R cells were treated as above for testing the reversibility of cell motility. The resulting "treated" cells (±), "washout" cells (±), and "control" cells were then subjected to the adhesion assay.

A2058 cells [2] = assay: Proliferation of A2058 cells (monolayer growth, crystal violet); type: cell-based, human
Procedure: For the clonogenic assay, aliquots of 50,000 cells per well (24 well plates) were grown under standard tissue culture conditions in the presence of increasing doses or test compound (0-10 μg/mL) or vehicle control. After 96 hr, the cells were gently washed with PBS, fixed, and stained with 0.5% crystal violet nuclear stain in 20% methanol. Excess stain was removed with tap water and bound stain was eluted with an equal volume solution of 01N sodium citrate (pH 4.2) and absolute ethanol. Optical density (O.D.) of eluted crystal violet stain was determined at 540 nm. The results of dose-dependent inhibition of tumor cell proliferation by compound 1 are shown in FIG. 5, in which the data are expressed as percent of untreated control cell proliferation for each cell type. The degree of inhibition varied with the cell type and was maximal (76%) for the A2058 cell line.
A2058 human melanoma cells were used to test the effect of compounds 1 and 3-25 on cellular proliferation. The cells were cultured in the presence of the test compounds (10 μM) for 96 hr. fixed and stained with crystal violet as described above. Growth inhibition was determined as a percent of control growth (using either DMSO or PEG-400 as the vehicle) for each compound. Each experiment was run a minimum of three times and the average of the results for each compound is provided in Table H and in FIGS. 20A and 20B.

CHOm5 cells = assay: Carbachol-stimulated generation of inositol phosphates; type: cell-based, Chinese hamster; details: concentrations above 10 μM
Procedure: This example illustrates the effect of compound 1 on the generation and release of phosphatidyl inositol from either A2058 cells (stimulated with autocrine motility factor) or CHOm5 cells (stimulated with carbachol).
A second assay utilized CHO cells which were transfected with and stably expressed the m5 subtype of the muscarinic acetylcholine receptor.
CHOm5 cells were incubated with [^3 H]inositol (0.5 μCi/well) for 18 to 24 hr. Before the addition of test compounds, the cells were washed twice with 250 μL of serum-free media supplemented with 20 mM HEPES and 10 mM lithium chloride. The test compounds were added in a final volume of 250 μL and the reaction was allowed to proceed for 15 min at 37° C. The reaction was stopped by the addition of 250 μL of an ice-cold solution containing 1M KOH, 18 mM Na2 B4 O7, 3.8 mM EDTA and 7.6 mM NaOH. The stop solution was neutralized immediately with the addition of 250 μL of a solution containing 7.5% HCl. Released inositol phosphates were separated by anion exchange chromatography.

[3] = test system: OVCAR3 human ovarian cancer; assay: Survival after intraperitoneal treatment; type: in vivo, nude mice; details: 50 mg/kg/d ip
Text: This example illustrates the effect of compound 1 on the survival of nude mice. The mice had been intraperitoneally injected with OVCAR3 human ovarian cancer cells followed, after three weeks, by intraperitoneal injection of 1.
The OVCAR3 human ovarian cancer animal model accurately approximates the clinical presentation of stage III-IV ovarian cancer of peritoneal carcinomatosis. Untreated, OVCAR3 tumor is lethal to nude mice.
Six-week-old nude mice were inoculated intraperitoneally with 3.4×10^7 OVCAR3 human ovarian cancer cells. After a three week period, all animals had grossly distended abdomens due to OVCAR3 ascites. Two groups of animals (four each) were paired for relative severity of ascites and treatment was initiated. Compound 1, 50 mg/kg/d in 60% DMSO (200 μL aliquot) or a vehicle alone, was administered via daily intraperitoneal injection. Overall survival from start of treatment was the study endpoint. Relative survival improvement was calculated as mean treatment group survival divided by mean control group survival.

[4] = test system: A2058 human melanoma tumors; assay: Oral treatment of subcutaneous xenografts; type: in vivo, nude mice
Procedure: This example illustrates the antitumor effect of compound 1 when administered orally to mice, following either subcutaneous inoculation of the mice with A2058 cells at two flank sites, intraperitoneal injection of OVCAR3 cells, or tail vein inoculation with 5R cells.
The antitumor effect of compound 1 was tested on groups of 10 nude mice which had been inoculated subcutaneously at two flank sites with 10^6 A2058 cells. Measureable tumors were observed within 14 days. On day 3 following tumor introduction, compound 1, diluted in PEG-400, or PEG-400 vehicle alone, was administered by gavage. Animals were monitored daily for toxicity, behavior, and extent of tumor. Weights and bidirectional measurements of A2058 tumor masses were determined three times per week.

OVCAR3 cells = assay: Oral treatment of intraperitoneal xenografts; type: in vivo, nude mice
[5] = Side effects in phase I clinical study; type: in vivo, human; details: oral, to date
Text: Seven patients with solid tumor metastasis are undergoing treatment via oral administration of compound 1 under the FDA approved phase I clinical study. […] PT# is patient number. Response is the sum of the products of bidirectional measurements.

[6] = test system: signal transduction and tumor growth; assay: Biological and biochemical assays, summary; type: cell-based; details: summary of all assays
Text: Compound 1 was inhibitory for the biological and biochemical assays.

[7] = test system: T-type voltage gated calcium channels; details: Hupe, et al.; cited from earlier work
[8] = test system: signal transduction pathways (calcium influx, release of arachidonic acid, generation of inositol phosphates); details: cited from earlier work

NC(=O)c1nnn(Cc2cc(Cl)c(C(=O)c3ccc(Cl)cc3)c(Cl)c2)c1N [Compound 1]
inhibition of cell adhesion (A2058 cells [1]): dose-dependent inhibition of cell adhesion | reversibility of adhesion inhibition (A2058 and 5R cells): reversible | activity at 1 µg/mL (A2058 and 5R cells; A2058, 1 μg/mL (+/-)): 106% | activity at 1 µg/mL (A2058 and 5R cells; A2058, 1 μg/mL (-/+)): 33% | activity at 5 µg/mL (A2058 and 5R cells; A2058, 5 μg/mL (+/-)): 96% | activity at 5 µg/mL (A2058 and 5R cells; A2058, 5 μg/mL (-/+)): 37% | dose dependent inhibition of proliferation (A2058 cells [2]; FIG. 20A, monolayer growth): Dose dependent inhibition of proliferation | activity at 10 µM (A2058 cells [2]; Homo sapiens, A2058, Table H, 10 μM, 96 hr, read-out: GROWTH (% OF CONTROL)): 36.4 ± 6% | inhibition of carbachol-stimulated generation of inositol phosphates (CHOm5 cells): partially inhibited | increase of overall survival [3]: 220% | overall survival from start of treatment ([3]; control 7.25±4.4 days): 16.0 ± 2.5 days | gross toxicity ([4]; 35 days of administration, and at necropsy): No gross toxicity | tumor necrosis ([4]; histologic evaluation of necropsy specimens): Marked necrosis | tumor growth ([4]; oral gavage from day 3): Significant growth arrest | tumor incidence ([4]; oral gavage from day 3): marked delay in tumor incidence | time to development of ascites (OVCAR3 cells; 100 mg/kg daily oral): Statistically significant differences | tumor necrosis and pulmonary micrometastases (histology) (OVCAR3 cells; 100 mg/kg daily oral): induced tumor necrosis and inhibition of pulmonary micrometastases | volume of ascites at necropsy (OVCAR3 cells; 100 mg/kg daily oral): Statistically significant differences | progression of OVCAR3 xenografts (OVCAR3 cells; FIG. 16B, 100 mg/kg by gavage): inhibits progression of OVCAR3 xenografts | abnormalities of blood cellular composition [5]: no abnormalities of blood cellular composition | bone marrow depression (white cell counts) [5]: do not show any bone marrow depression | liver or kidney function abnormalities [5]: do not show any liver or kidney function abnormalities | neurological toxicity, hair loss or electrolyte imbalances [5]: no neurological toxicity, hair loss or electrolyte imbalances | inhibition in the biological and biochemical assays [6]: inhibitory | inhibition of T-type voltage gated calcium channels [7]: inhibit | inhibition of selected signal transduction pathways [8]: novel inhibitor of selected signal transduction pathways
